Measurements from publication PMC9322761, “Design, Synthesis and Biological Characterization of Histone Deacetylase 8 (HDAC8) Proteolysis Targeting Chimeras (PROTACs) with Anti-Neuroblastoma Activity” (International Journal of Molecular Sciences, 2022).
Where two headings read alike, the source gives them in different places.

Assays:
[1] = molecular target: T1, HDAC8 (Homo sapiens, UniProt Q9BY41); test: In vitro HDAC8 activity assay (Fluor de Lys-HDAC8); assay type: biochemical; parameters: made in house; settings: for SI (HDAC6/HDAC8): selectivity index, HDAC6 over HDAC8
T1 sequence (Q9BY41 1-377): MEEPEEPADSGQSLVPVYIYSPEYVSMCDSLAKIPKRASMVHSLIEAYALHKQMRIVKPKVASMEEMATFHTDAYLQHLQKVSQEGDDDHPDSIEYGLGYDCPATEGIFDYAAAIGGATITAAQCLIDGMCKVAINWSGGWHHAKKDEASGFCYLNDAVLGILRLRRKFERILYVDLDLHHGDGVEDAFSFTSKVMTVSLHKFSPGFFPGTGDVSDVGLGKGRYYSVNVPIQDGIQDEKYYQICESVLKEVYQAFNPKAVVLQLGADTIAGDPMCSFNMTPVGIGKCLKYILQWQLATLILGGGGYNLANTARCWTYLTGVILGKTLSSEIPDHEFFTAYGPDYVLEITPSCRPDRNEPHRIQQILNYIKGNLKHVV
Experimental: Recombinant hHDAC8 was produced by Romier et al. in Strasbourg. The HDAC8 activity assays were performed according to the commercial HDAC8 Fluorometric Drug Discovery Kit (Fluor de Lys(R)-HDAC8, BML-KI178) corresponding to the instructions of the manufacturer. As substrate a tetrapeptide connected to aminomethylcoumarin (AMC) H2N-Arg- His-Lys(Ac)-Lys(Ac)-AMC was synthesized as previously described. The enzyme was incubated for 90 min at 37 °C, with a substrate concentration of 50 µM and increasing concentrations of inhibitors. The stop-solution-containing inhibitor was added to stop the hHDAC8 activity, and Trypsin was added to release the AMC. The solution was incubated for 20 min at 37 °C to develop the assay.
(§1) Inhibition was measured at increasing concentration and IC50 was calculated by nonlinear regression with Origin 9.0G software.

[2] = molecular target: HDAC1 (Homo sapiens, UniProt Q13547); test: In vitro HDAC inhibitory activity assay, recombinant HDAC1 (fluorogenic substrate ZMAL); assay type: biochemical; parameters: purchased BPS Biosciences; settings: for inhibition at 1 µM / inhibition at 10 µM: read-out: HDAC1 % inhib. at given conc.
Experimental: (§2) The in vitro testing on recombinant HDACs was performed as previously described. Recombinant human HDAC1 and −6 were purchased from BPS Biosciences. The enzyme inhibition was determined by using a reported homogenous fluorescence assay. […] Fluorescence intensity was measured at an excitation wavelength of 390 nm and an emission wavelength of 460 nm in a microtiter plate reader (BMG Polarstar).
as §1

[3] = molecular target: T2, HDAC6 (Homo sapiens, UniProt Q9UBN7); test: In vitro HDAC inhibitory activity assay, recombinant HDAC6 (fluorogenic substrate ZMAL); assay type: biochemical; parameters: purchased BPS Biosciences; settings: for inhibition at 1 µM / inhibition at 10 µM: read-out: HDAC6 % inhib. at given conc.
T2 sequence (Q9UBN7 1-1215): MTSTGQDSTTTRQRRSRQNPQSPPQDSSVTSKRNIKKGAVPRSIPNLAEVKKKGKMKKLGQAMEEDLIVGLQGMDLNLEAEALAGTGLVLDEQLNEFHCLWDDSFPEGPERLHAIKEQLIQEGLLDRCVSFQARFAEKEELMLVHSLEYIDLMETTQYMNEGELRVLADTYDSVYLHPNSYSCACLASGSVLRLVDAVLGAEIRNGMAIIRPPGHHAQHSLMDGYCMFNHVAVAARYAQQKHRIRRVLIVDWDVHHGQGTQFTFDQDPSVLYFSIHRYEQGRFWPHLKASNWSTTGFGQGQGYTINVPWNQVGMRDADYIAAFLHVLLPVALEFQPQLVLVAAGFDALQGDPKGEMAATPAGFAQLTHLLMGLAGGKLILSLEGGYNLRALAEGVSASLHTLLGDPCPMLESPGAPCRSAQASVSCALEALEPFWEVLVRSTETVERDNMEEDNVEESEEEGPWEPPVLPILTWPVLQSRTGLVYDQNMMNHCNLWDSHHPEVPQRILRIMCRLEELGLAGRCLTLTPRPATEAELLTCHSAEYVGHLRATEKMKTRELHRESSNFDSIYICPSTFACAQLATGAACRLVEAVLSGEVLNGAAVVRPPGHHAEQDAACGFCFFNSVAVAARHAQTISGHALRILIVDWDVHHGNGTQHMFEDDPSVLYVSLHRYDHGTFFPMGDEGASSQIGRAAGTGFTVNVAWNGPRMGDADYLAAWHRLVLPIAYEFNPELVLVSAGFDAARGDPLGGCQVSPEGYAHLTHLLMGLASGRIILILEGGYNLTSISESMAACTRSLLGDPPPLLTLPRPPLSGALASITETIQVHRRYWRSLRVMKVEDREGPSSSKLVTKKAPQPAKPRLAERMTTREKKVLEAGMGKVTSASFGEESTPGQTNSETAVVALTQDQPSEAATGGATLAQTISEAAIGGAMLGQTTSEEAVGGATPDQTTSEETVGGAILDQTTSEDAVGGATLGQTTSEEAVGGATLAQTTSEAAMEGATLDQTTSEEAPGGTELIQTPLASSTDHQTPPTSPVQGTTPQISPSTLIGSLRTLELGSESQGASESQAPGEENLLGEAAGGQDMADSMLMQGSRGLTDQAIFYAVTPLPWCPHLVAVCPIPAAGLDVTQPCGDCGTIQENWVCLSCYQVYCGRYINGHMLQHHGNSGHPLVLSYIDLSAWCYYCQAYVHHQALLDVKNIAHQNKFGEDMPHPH
Experimental: as §2, §1

[4] = tested on: SK-N-BE(2)-C cells; test: Colony formation assay in neuroblastoma cells; assay type: cell-based, human; settings: 5 and 10 μM, treatment 96 h, then 6 days without treatment
Experimental: In order to measure the functional consequence of HDAC8 inhibition, two different cell lines were used: SK-N-BE(2)-C cells, which display MYCN amplification and non-functional p53; and IMR-32 cells having p53 wild type, which both respond with growth arrest and signs of neuronal differentiation upon knockdown or selective inhibition of HDAC8. Growth arrest was determined by colony formation and viability assays. Cells were treated with 5 and 10 μM of each of the CRBN_ based HDAC8 PROTACs having a triazole linker (CRBN_1d, CRBN_1e, CRBN_1f) for 96 h, followed by culturing for another 6 days without treatment (Figure 5A). This assesses whether the treatment impairs the clonogenic growth capacity of tumor cells, indicating effectiveness of compounds on the survival and proliferation of tumor cells.
In six-well plates, 500 cells were seeded and treated as indicated. Viable colonies were stained after a minimum of 10 days with crystal violet. For quantification, the mean intensity of each well of the 8-bit binary picture was measured with ImageJ software (U. S. National Institutes of Health, Bethesda, MD, USA; http://imagej.nih.gov/ij/ (accessed on 1 March 2022)).
Figure 5 (A) Neuroblastoma SK-N-BE(2)-C cells; Colony Assay, 10 days (compound treatment within first 96 h). Stained with crystal violet and quantified with ImageJ. (B,C) Trypan Blue assay for detection of dead cells. Neuroblastoma IMR-32 cells were either treated with 5 µM (B) or 10 µM (C). (D,E) Cell proliferation assessed via counting of viable cells. IMR-32 cells were either treated with 5 µM (D) or 10 µM (E) PROTACs. HDAC8i PCI-34501 served as a positive control, untreated (MEM) and solvent (DMSO) treated cells served as negative controls.

[5] = molecular target: T1, HDAC8; test: HDAC8 degradation in SK-N-BE(2)-C neuroblastoma cells (Western blot); assay type: cell-based; parameters: endogenous in cells; host or cells: SK-N-BE(2)-C
Experimental: Whole cell lysates from treated SK-N-BE(2)-C neuroblastoma cells were taken and the protein levels for HDAC8 and the acetylation of its substrate SMC3 were determined (Figure 6). As a control for HDAC6, we also assessed acetylation levels of α-tubulin. […] Western blot analysis was performed as described previously (Kolbinger et al.).
Figure 6 (A) SK-N-BE(2)-C neuroblastoma cells were treated for indicated time points with 10 µM of PROTACs. Degradation of HDAC8 and acetylation of HDAC8 target was analyzed via Western blot. (B) SK-N-BE(2)-C neuroblastoma cells were treated for 6 h with indicated concentrations of HyT_1p, CRBN_1b and HyT_1m. Acetylation of HDAC8 target SMC3 and HDAC6 target tubulin, as well as total HDAC8 levels, were assessed by Western blot. Quantified ac-SMC3 or ac-tubulin expression, respectively, was normalized to the respective tubulin loading control and to the solvent control (DMSO). This quantification is reflected by the numbers below each blot. […] Total HDAC6, total HDAC1, total HDAC8, and acetyl-histone H4 expression levels, were assessed by Western blot. Total GAPDH protein levels served as a loading control (LC). * unspecific bands obtained through reprobing of the membrane.

[6] = Table 1, PROTACs, read-out: HDAC6 IC50
[7] = Table 2, inhibitors synthesized in this paper (S1)
[8] = Table 2, inhibitors synthesized in this paper (S1), read-out: HDAC1 IC50
[9] = Table 2, inhibitors synthesized in this paper (S1), read-out: HDAC6 IC50

Sequence of HDAC1 (Q13547 whole entry): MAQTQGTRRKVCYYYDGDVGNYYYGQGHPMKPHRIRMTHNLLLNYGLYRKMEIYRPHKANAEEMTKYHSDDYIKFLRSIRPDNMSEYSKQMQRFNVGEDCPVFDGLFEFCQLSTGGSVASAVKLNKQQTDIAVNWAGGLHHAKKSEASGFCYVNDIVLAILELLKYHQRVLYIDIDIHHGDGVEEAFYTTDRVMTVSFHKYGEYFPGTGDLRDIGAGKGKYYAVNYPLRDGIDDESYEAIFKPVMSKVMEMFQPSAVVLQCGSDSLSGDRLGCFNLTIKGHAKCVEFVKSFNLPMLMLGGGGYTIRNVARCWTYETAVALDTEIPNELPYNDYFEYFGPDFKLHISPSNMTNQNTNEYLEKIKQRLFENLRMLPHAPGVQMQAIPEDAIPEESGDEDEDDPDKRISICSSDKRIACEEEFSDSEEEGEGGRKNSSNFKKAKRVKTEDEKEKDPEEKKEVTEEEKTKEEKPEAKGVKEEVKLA

IC50 ([1]; Table 1, PROTACs) [nM] | inhibition at 1 µM [2] [%] | inhibition at 10 µM [2] [%] | inhibition at 1 µM [3] [%] | inhibition at 10 µM [3] [%] | SMILES | SI (HDAC6/HDAC8) [1] | further results
590 ± 110 | 10.1 | 69 | 24.8 | 72.6 | O=C(COc1ccc(CNc2cc(C(=O)NO)ccc2Cl)cc1)NCCCCCNc1cccc2c1C(=O)N(C1CCC(=O)NC1=O)C2=O (stereo not shown) [CRBN_1g] |  | 
90 ± 10 | 9.8 | 52.6 |  |  | COc1ccc(C(=O)NO)cc1NC(=O)c1ccc(CNC(=O)CCCCCCCNC(=O)CC23CC4CC(CC(C4)C2)C3)cc1 [HyT_1o] | 4 | IC50 [3, 6]: 370 ± 30 nM
 |  |  |  |  | COc1ccc(CNc2cc(C(=O)NO)ccc2OC)cc1 [2h] |  | IC50 [1, 7]: 10 ± 1 nM; IC50 [2, 8]: > 20000 nM; IC50 [3, 9]: 150 ± 1 nM
250 ± 30 |  |  |  |  | O=C1CCC(N2C(=O)c3cccc(NC(=O)CCCCCn4cc(COc5ccc(CNc6cc(C(=O)NO)ccc6Cl)cc5)nn4)c3C2=O)C(=O)N1 (stereo not shown) [CRBN_1f] | 5 | Effect on colony formation [4]: inactive; IC50 ([2]; Table 1, PROTACs, read-out: HDAC1 IC50): 10800 ± 700 nM; IC50 [3, 6]: 1300 ± 300 nM
4840 ± 1050 | 13.9 | 60 | 46.2 | 80.9 | O=C(COc1ccc(C(=O)Nc2cccc(C(=O)NO)c2)cc1)NCCCOCCOCCOCCCNc1cccc2c1C(=O)N(C1CCC(=O)NC1=O)C2=O (stereo not shown) [CRBN_1j] |  | 
 |  |  |  |  | O=C(COc1ccc(CNc2cc(C(=O)NO)ccc2Cl)cc1)OCc1ccccc1 [2i] |  | IC50 [1, 7]: 410 ± 50 nM; IC50 [2, 8]: > 20000 nM; IC50 [3, 9]: 7400 ± 600 nM
650 ± 140 | 20.7 | 67.4 | 85.4 | 92.3 | O=C(COc1ccc(C(=O)Nc2cc(C(=O)NO)ccc2Cl)cc1)NCCCOCCOCCOCCCNc1cccc2c1C(=O)N(C1CCC(=O)NC1=O)C2=O (stereo not shown) [CRBN_1i] |  | 
390 ± 30 | 38.6 | 30 |  |  | COc1ccc(C(=O)NO)cc1NC(=O)c1ccc(NC(=O)CCCCCCCNC(=O)CC23CC4CC(CC(C4)C2)C3)cc1 [HyT_1n] | 2 | IC50 [3, 6]: 820 ± 50 nM
 |  |  |  |  | C[C@@H]1C[C@@H]([C@H](O)CC2CC(=O)NC(=O)C2)C(=O)[C@@H](C)C1 [cycloheximide, reference compound] |  | HDAC8 degradation with de novo protein synthesis inhibited ([5]; 24 h, cycloheximide 35 nM, PROTAC 10 μM): no effect
720 ± 150 | 6 | 45.5 | 8.3 | 72.4 | Cc1ncsc1-c1ccc(CNC(=O)[C@@H]2C[C@@H](O)CN2C(=O)[C@@H](NC(=O)CCCCCNC(=O)COc2ccc(CNc3cc(C(=O)NO)ccc3Cl)cc2)C(C)(C)C)cc1 [VHL_1l] |  | 

SMILES | IC50 ([1]; Table 1, PROTACs) [nM] | inhibition at 1 µM [2] [%] | inhibition at 10 µM [2] [%] | inhibition at 1 µM [3] [%] | inhibition at 10 µM [3] [%] | SI (HDAC6/HDAC8) [1] | further results
O=C(COc1ccc(CNc2cc(C(=O)NO)ccc2Cl)cc1)NCCCOCCOCCOCCCNc1cccc2c1C(=O)N(C1CCC(=O)NC1=O)C2=O (stereo not shown) [CRBN_1h] | 330 ± 190 |  |  | 33.5 | 66.8 |  | IC50 [2]: 3910 ± 480 nM
COc1ccc(C(=O)NO)cc1NC(=O)c1ccc(CNC(=O)CCCCCCCNc2cccc3c2C(=O)N(C2CCC(=O)NC2=O)C3=O)cc1 (stereo not shown) [CRBN_1c] | 150 ± 10 | 22.2 | 40.1 |  |  | 2 | IC50 [3]: 250 ± 20 nM
COc1ccc(C(=O)NO)cc1NC(=O)c1ccc(NC(=O)CCCCCNc2cccc3c2C(=O)N(C2CCC(=O)NC2=O)C3=O)cc1 (stereo not shown) [CRBN_1a] | 90 ± 30 |  |  |  |  | 2 | IC50 [2]: 4370 ± 650 nM; IC50 [3]: 220 ± 60 nM
Cc1ccc(C(=O)NO)cc1NCc1ccc(OCc2cn(CCCCCC(=O)Nc3cccc4c3C(=O)N(C3CCC(=O)NC3=O)C4=O)nn2)cc1 (stereo not shown) [CRBN_1d] | 370 ± 50 |  |  |  |  | 18 | Effect on colony formation [4]: strongest effect on colony formation; IC50 [2]: 13100 ± 600 nM; IC50 [3]: 6700 ± 600 nM; HDAC8 degradation ([5]; SK-N-BE(2)-C cells, up to 10 µM, Western blot): failed to degrade HDAC8
